≈ marks a conversion by molar mass, not a printed value.
How the values were obtained:
Assay in all cases: ≥ marks a high value that may be exact or a test limit, other limits are often not marked, values filed in µg/mL are converted to µM
[1] = tested on: Escherichia coli NBRC 3972
[2] = tested on: Staphylococcus aureus NBRC 13276
[3] = tested on: Bacillus subtilis NBRC 3009
[4] = tested on: Zymomonas mobilis ATCC 10988
[5] = tested on: Pseudomonas aeruginosa PAO1
Candida parapsilosis = tested on: Candida parapsilosis
[6] = tested on: Escherichia coli DH5alpha
Bacillus subtilis DELTA = tested on: Bacillus subtilis DELTA
Candida krusei ATCC 6258 = tested on: Candida krusei ATCC 6258
[7] = tested on: Staphylococcus aureus ATCC 29213
[8] = tested on: Candida albicans ATCC 10231
[9] = tested on: Candida tropicalis ATCC 750
[10] = tested on: Candida glabrata ATCC 2001
[11] = tested on: Candida parapsilosis ATCC 90018
[12] = tested on: Escherichia coli ATCC 25922
[13] = tested on: Pseudomonas aeruginosa ATCC 27853
[14] = tested on: Bacillus subtilis ATCC 6633
[15] = tested on: Micrococcus luteus ATCC 4698
[16] = tested on: Staphylococcus aureus KCTC 3881
[17] = tested on: Staphylococcus epidermidis ATCC 12228
[18] = tested on: Klebsiella pneumoniae ATCC 10031
[19] = tested on: Escherichia coli KCTC 2433
[20] = tested on: Pseudomonas aeruginosa ATCC 9027
[21] = tested on: Staphylococcus aureus ATCC 25923
[22] = tested on: Proteus mirabilis ATCC 25933
[23] = tested on: Candida albicans ATCC 36232
[24] = tested on: Shigella dysenteriae ATCC 9752
Staphylococcus aureus = tested on: Staphylococcus aureus
[25] = tested on: Bifidobacterium longum subsp. infantis
Escherichia coli = tested on: Escherichia coli
Aspergillus fumigatus = tested on: Aspergillus fumigatus
Klebsiella pneumoniae = tested on: Klebsiella pneumoniae
Bibersteinia trehalosi = tested on: Bibersteinia trehalosi
[26] = tested on: Mannheimia haemolytica Serovar 6
[27] = tested on: Mannheimia haemolytica Serovar 2
[28] = tested on: Mannheimia haemolytica Serovar 1
[29] = tested on: Salmonella enterica subsp. arizonae
[30] = tested on: Corynebacterium pseudotuberculosis ATCC 19410
Pasteurella multocida = tested on: Pasteurella multocida
[31] = tested on: Cryptococcus neoformans ATCC 32264
Yersinia enterocolitica = tested on: Yersinia enterocolitica
[32] = tested on: Salmonella enterica subsp. enterica serovar Enteritidis
[33] = tested on: Staphylococcus aureus ATCC 43300
Salmonella sp. = tested on: Salmonella sp.

In the case of `CC[C@H](C)[C@H](NC(=O)[C@H](C)NC(=O)[C@H](CO)NC(=O)[C@@H](NC(=O)[C@H](CC(C)C)NC(=O)CNC(=O)CNC(=O)[C@@H](NC(=O)[C@H](CC(C)C)NC(=O)[C@H](CO)NC(=O)[C@@H]1CCCN1C(=O)[C@H](CC(C)C)NC(=O)[C@H](Cc1ccccc1)NC(=O)[C@H](Cc1ccccc1)NC(=O)[C@@H](N)Cc1ccccc1)[C@@H](C)CC)C(C)C)C(=O)N[C@@H](CCCCN)C(N)=O` [FFFLPSLIGGLVSAIK], the MIC [1] is reported as ≥ 100 µM, the MIC [2] is reported as ≥ 35.4 µM and the MIC [3] is reported as 1.8 µM (≈ 3.08 µg/mL).
`CC[C@H](C)[C@H](NC(=O)[C@H](CCCN=C(N)N)NC(=O)[C@H](CCCCN)NC(=O)[C@H](Cc1ccccc1)NC(C)=O)C(=O)N[C@H](C(=O)N[C@@H](CCC(N)=O)C(=O)N[C@H](C(=O)N[C@H](C(=O)N[C@@H](CCCCN)C(=O)N[C@@H](CCCCN)C(=O)N[C@@H](Cc1ccccc1)C(=O)N[C@@H](CC(C)C)C(=O)N[C@@H](CCCN=C(N)N)C(N)=O)[C@@H](C)CC)[C@@H](C)CC)C(C)C` [FKRIVQIIKKFLR] gave an MIC [4] of 2.96 µM (≈ 5.12 µg/mL), an MIC [5] of 1.78 µM (≈ 3.07 µg/mL) and an MIC (Candida parapsilosis) of 17.8 µM (≈ 30.7 µg/mL). It also gave an MIC [6] of 29.6 µM (≈ 51.2 µg/mL) and an MIC (Bacillus subtilis DELTA) of 11.8 µM (≈ 20.5 µg/mL).
In the case of `CC[C@H](C)[C@H](NC(=O)CN)C(=O)N[C@@H](CC(C)C)C(=O)N[C@@H](CC(=O)O)C(=O)N[C@H](C(=O)N[C@@H](CC(C)C)C(=O)N[C@@H](CC(N)=O)C(=O)N[C@@H](CCCCN)C(=O)N[C@H](C(=O)N[C@@H](CO)C(=O)N[C@@H](CC(N)=O)C(=O)N[C@@H](CC(C)C)C(=O)N[C@@H](Cc1ccccc1)C(N)=O)C(C)C)[C@@H](C)CC` [GILDILNKVSNLF], the MIC (Candida krusei ATCC 6258) is reported as ≥ 62.5 µM, the MIC [7] is reported as 8 µM (≈ 11.6 µg/mL) and the MIC [8] is reported as 31.2 µM (≈ 45.1 µg/mL). For the same molecule, the MIC [9] was 31.2 µM (≈ 45.1 µg/mL), the MIC [10] was ≥ 125 µM and the MIC [11] was ≥ 125 µM. For the same molecule, the MIC [12] was 62.5 µM (≈ 90.3 µg/mL) and the MIC [13] was 31.2 µM (≈ 45.1 µg/mL).
With `CC[C@H](C)[C@@H]1NC(=O)[C@H](CCCCN)NC(=O)[C@@H](NC(=O)[C@H](CCCCN)NC(=O)[C@H](CC(C)C)NC(=O)[C@H](CCC(N)=O)NC(=O)[C@H](CCC(=O)O)NC(=O)[C@H](CC(C)C)NC(=O)[C@H](CC(C)C)NC(=O)[C@H](CO)NC(=O)CNC(=O)CNC(=O)[C@@H](NC(=O)[C@H](CC(N)=O)NC(=O)[C@H](CCCCN)NC(=O)[C@H](C)NC(=O)[C@@H](NC(=O)[C@H](CC(N)=O)NC(=O)[C@H](CCCCN)NC(=O)CNC(=O)[C@@H](NC(=O)[C@H](C)NC(=O)[C@H](CCCCN)NC(=O)[C@H](CC(C)C)NC(=O)[C@@H](NC(=O)CNC(=O)[C@@H](NC(=O)[C@@H](NC(=O)[C@@H](NC(=O)[C@H](CO)NC(=O)[C@H](Cc2ccccc2)NC(=O)[C@H](CC(C)C)NC(=O)CN)C(C)C)C(C)C)[C@@H](C)O)C(C)C)C(C)C)C(C)C)C(C)C)CSSC[C@@H](C(=O)O)NC(=O)CNC(=O)CNC(=O)[C@H](CO)NC1=O` [GLFSVVTGVLKAVGKNVAKNVGGSLLEQLKCKISGGC] the MIC [14] was 13.6 µM (≈ 50 µg/mL), the MIC [15] was 1.7 µM (≈ 6.25 µg/mL) and the MIC [16] was 6.8 µM (≈ 25 µg/mL). For the same molecule, the MIC [17] was 13.6 µM (≈ 50 µg/mL), the MIC [18] was 13.6 µM (≈ 50 µg/mL) and the MIC [19] was 16.3 µM (≈ 60 µg/mL). For the same molecule, the MIC [20] was > 27.2 µM, the MIC [21] was 30 µM (≈ 110 µg/mL) and the MIC [22] was 27.2 µM (≈ 99.9 µg/mL). The MIC [23] was 13.6 µM (≈ 50 µg/mL), the MIC [12] was 15 µM (≈ 55.1 µg/mL) and the MIC [24] was 13.6 µM (≈ 50 µg/mL).
With `CC[C@H](C)[C@H](NC(=O)[C@H](CCC(N)=O)NC(=O)[C@H](Cc1cnc[nH]1)NC(=O)[C@@H](NC(=O)[C@@H]1CCCN1C(=O)[C@H](CC(N)=O)NC(=O)[C@H](CC(C)C)NC(=O)[C@@H](N)CC(C)C)[C@@H](C)O)C(=O)N[C@@H](Cc1ccc(O)cc1)C(=O)N1CCC[C@H]1C(=O)N[C@H](C(=O)N[C@H](C(=O)N[C@@H](CCC(N)=O)C(=O)N1CCC[C@H]1C(=O)N[C@@H](CC(C)C)C(=O)N[C@@H](C)C(=O)N1CCC[C@H]1C(=O)N[C@H](C(=O)N[C@@H](Cc1cnc[nH]1)C(=O)N[C@@H](CC(N)=O)C(=O)N1CCC[C@H]1C(=O)N[C@H](C(=O)N[C@@H](CO)C(=O)O)[C@@H](C)CC)C(C)C)[C@@H](C)O)C(C)C` [LLNPTHQIYPVTQPLAPVHNPIS] the MIC (Staphylococcus aureus) was > 1180 µM, the MIC [25] was ≥ 1180 µM and the MIC (Escherichia coli) was > 1180 µM.
`CC[C@H](C)[C@H](NC(=O)[C@H](CCCCN)NC(=O)[C@H](CCCN=C(N)N)NC(=O)CNC(=O)[C@H](CC(C)C)NC(=O)[C@H](C)NC(=O)[C@H](CCCN=C(N)N)NC(=O)[C@H](CC(C)C)NC(=O)CNC(=O)[C@@H](N)CCCN=C(N)N)C(=O)N[C@@H](C)C(=O)N[C@@H](Cc1cnc[nH]1)C(=O)NCC(=O)N[C@H](C(=O)N[C@@H](CCCCN)C(=O)N[C@@H](C)C(=O)N[C@@H](Cc1ccc(O)cc1)C(=O)NCC(=O)O)C(C)C` [RGLRALGRKIAHGVKAYG] was tested, and the MIC (Staphylococcus aureus) was > 10.4 µM, the MIC (Aspergillus fumigatus) was 20.8 µM (≈ 40 µg/mL) and the MIC (Klebsiella pneumoniae) was > 10.4 µM. It also gave an MIC [5] of 5.2 µM (≈ 10 µg/mL), an MIC (Bibersteinia trehalosi) of 10.4 µM (≈ 20 µg/mL) and an MIC [26] of 10.4 µM (≈ 20 µg/mL). The MIC [27] was 4.32 µM (≈ 8.3 µg/mL), the MIC [28] was 5.2 µM (≈ 10 µg/mL) and the MIC [29] was 10.4 µM (≈ 20 µg/mL). The MIC [30] was 10.4 µM (≈ 20 µg/mL) and the MIC (Pasteurella multocida) was 10.4 µM (≈ 20 µg/mL).
For `NC(=O)CC[C@H](NC(=O)[C@H](Cc1c[nH]c2ccccc12)NC(=O)[C@H](Cc1c[nH]c2ccccc12)NC(=O)[C@H](CCCN=C(N)N)NC(=O)[C@H](CCCN=C(N)N)NC(=O)[C@H](Cc1c[nH]c2ccccc12)NC(=O)[C@H](CCC(N)=O)NC(=O)[C@@H](N)CCCN=C(N)N)C(=O)N[C@@H](CCCN=C(N)N)C(N)=O` [RQWRRWWQR], the MIC [31] was 12.5 µM (≈ 18.2 µg/mL), the MIC [7] was 34.3 µM (≈ 50 µg/mL) and the MIC [8] was 50 µM (≈ 72.8 µg/mL). The MIC (Yersinia enterocolitica) was 17.2 µM (≈ 25 µg/mL), the MIC [32] was 8.58 µM (≈ 12.5 µg/mL) and the MIC [33] was 17.2 µM (≈ 25 µg/mL). The MIC [12] was 17.2 µM (≈ 25 µg/mL), the MIC (Salmonella sp.) was 17.2 µM (≈ 25 µg/mL) and the MIC (Escherichia coli) was 8.58 µM (≈ 12.5 µg/mL).
